Measurements from ChEMBL document CHEMBL1158860, “New Diosgenin Glycosides from Costus afer” (J Nat Prod, 1997).
Active and inactive are the calls of the source. No cut-off for these calls is given here.

System: HL-60
Experiment: Potentiation of cisplatin cytotoxicity against human HL60 cells
Assay type: functional, cell-based

Row | SMILES | Activity
1 | C[C@@H]1CC[C@@]2(OC1)O[C@H]1C[C@H]3[C@@H]4CC=C5C[C@@H](O[C@@H]6O[C@H](CO)[C@@H](O[C@@H]7O[C@@H](C)[C@H](O)[C@@H](O)[C@H]7O)[C@H](O)[C@H]6O[C@@H]6O[C@@H](C)[C@H](O)[C@@H](O)[C@H]6O)CC[C@]5(C)[C@H]4CC[C@]3(C)[C@H]1[C@@H]2C | inactive
2 | CC(=O)O[C@@H]1[C@@H](O)[C@@H](O)[C@H](O[C@H]2[C@H](O[C@H]3CC[C@@]4(C)C(=CC[C@H]5[C@@H]6C[C@@H]7O[C@]8(CC[C@@H](C)CO8)[C@@H](C)[C@@H]7[C@@]6(C)CC[C@@H]54)C3)O[C@H](CO)[C@@H](O[C@@H]3OC[C@](O)(CO)[C@H]3O)[C@@H]2O)O[C@H]1C | inactive
3 | C[C@@H]1CC[C@@]2(OC1)O[C@H]1C[C@H]3[C@@H]4CC=C5C[C@@H](O[C@@H]6O[C@H](CO)[C@@H](O[C@@H]7OC[C@](O)(CO)[C@H]7O)[C@H](O)[C@H]6O)CC[C@]5(C)[C@H]4CC[C@]3(C)[C@H]1[C@@H]2C | inactive
4 | C[C@@H]1CC[C@@]2(OC1)O[C@H]1C[C@H]3[C@@H]4CC=C5C[C@@H](O[C@@H]6O[C@H](CO)[C@@H](O[C@@H]7OC[C@](O)(CO)[C@H]7O)[C@H](O)[C@H]6O[C@@H]6O[C@@H](C)[C@H](O)[C@@H](O)[C@H]6O)CC[C@]5(C)[C@H]4CC[C@]3(C)[C@H]1[C@@H]2C | inactive
